Results taken from article PMC8227856, “Antibacterial Activity of a Promising Antibacterial Agent: 22-(4-(2-(4-Nitrophenyl-piperazin-1-yl)-acetyl)-piperazin-1-yl)-22-deoxypleuromutilin” (Molecules, 2021).
Values after ≈ are worked out from the molar mass of the structure shown. Read-outs that look alike come from different tables or passages of the source.

Key:
S. aureus ATCC 29213 [1] = test: MIC, broth dilution micro-method; type: cell-based; conditions: Staphylococcus aureus, ATCC29213, 24 h, MHB
Procedure: (§1) The MICs of NPDM against MRSA were determined by the broth dilution micro-method. Briefly, the stock solution of NPDM and the reference drug tiamulin were diluted by a two-fold serial dilution method with MHB in a 96-well plate to provide concentration ranges of 16~0.032 μg/mL. Then 100 μL of bacterial suspensions in log phase were diluted to 10^6 CFU/mL with MHB and were added to each well to make the final concentrations of the test compounds ranging from 8 to 0.016 μg/mL. The bacterial suspension (no drugs but solvent) was used as the positive control and MHB (no cultures) was used as the negative control. […] The MICs assay was carried out in triplicate.

[2] = tested on: S. aureus 144 (clinical strain); test: MIC, broth dilution micro-method; type: cell-based; conditions: Staphylococcus aureus, 24 h, MHB
Procedure: as §1

MRSA ATCC 43300 [3] = test: MIC, broth dilution micro-method; type: cell-based; conditions: Staphylococcus aureus, 24 h, MHB
Procedure: as §1

[4] = tested on: S. aureus AD3 (clinical strain); test: MIC, broth dilution micro-method; type: cell-based; conditions: Staphylococcus aureus, 24 h, MHB
Procedure: as §1

[5] = Pharmacokinetic study in mice, plasma LC-MS/MS; type: in vivo
Procedure: Adult female mice fasted for 12 h before the experiment. The NPDM was administered intravenously at the dose of 10 mg/kg. Approximately 0.2 mL blood samples were collected from the ocular venous plexus at 0.083, 0.167, 0.25, 0.5, 0.75, 1, 2, 4, 6, 8, 12, and 24 h after administration. All samples were centrifuged at 3000 rpm for 10 min, then the plasma samples were separated and stored at −20 °C. After thawing at room temperature, samples were mixed with acetonitrile (HPLC grade, sample:acetonitrile = 1:4, v/v) and centrifuged at 12,000 rpm for 10 min. Then, the supernatant was purified by the 0.22 μm cellulose membrane filter and transferred into an autosampler vial for HPLC-MS/MS analysis. Information of the equipment and analysis conditions are available in the Supplemental Materials. The pharmacokinetic parameters of the NPDM were calculated using the non-compartmental model in WinNonlin 5.2 software (Pharsight, Mountain View, CA, USA).

S. aureus ATCC 29213 [6] = test: Time-kill assay; type: cell-based, Staphylococcus aureus
Procedure: (§2) The MRSA and S. aureus in the logarithmic phase were diluted to 10^6 CFU/mL with MHB. Then diverse concentrations of NPDM or tiamulin were added to the bacteria solution reaching the final concentration of 1 × MIC, 2 × MIC, 4 × MIC, and 8 × MIC, respectively. All bacterial inoculums were cultured at 37 °C with shaking. A total of 100 μL samples were taken from the subcultures at 0, 3, 6, 9, and 24 h, respectively, and continuously diluted 10-fold in sterile saline; then, 25 μL diluent was plated on the MHA plate. All plates were placed at 37 °C for 24 h. The total number of colonies on the plate was counted, and the results were expressed as log (CFU/mL).

MRSA ATCC 43300 [7] = test: Time-kill assay; type: cell-based, Staphylococcus aureus
Procedure: as §2

MRSA ATCC 43300 [8] = test: Neutropenic mouse systemic infection model; type: in vivo, Staphylococcus aureus; conditions: 30 mg/kg i.v.
Procedure: The survival rate of mice was determined by the systemic infection model according to the literature with some modifications. Neutropenic mice (10 per group, half male and half female) were injected with 0.5 mL MRSA inoculum of 10^6 CFU/mL (100% minimum lethal dose) intraperitoneally. One hour after infection, the mice were administered with NPDM or tiamulin intravenously at a dose of 30 mg/kg body weight. Tiamulin was used as a reference drug. The survival of the mice was recorded for 7 days.

MRSA ATCC 43300 [9] = test: Post-antibiotic effect (PAE) assay; type: cell-based, Staphylococcus aureus
Procedure: The PAE was carried out as described in the literature. The MRSA was diluted to 10^6 CFU/mL in MHB. The NPDM or tiamulin was added into the bacteria solution at the final concentrations of 2 × MIC and 4 × MIC. Then all tubes were incubated at 37 °C for 1 h or 2 h. Each of the above inoculums was diluted 1000-fold with pre-warmed MHB to remove the test compounds and placed in a water bath at 37 °C immediately. One hundred microliters of suspension were taken from each culture, diluted 10-fold in sterile saline, and inoculated on MHA plates at 0, 1, 2, 4, and 6 h after inoculation. The total number comprising the colonies was counted after incubation at 37 °C for 20 h. The PAE was calculated referring to published methods. The experiment was performed in triplicate.

S. aureus ATCC 29213 [10] = test: Neutropenic mouse thigh infection model; type: in vivo, Staphylococcus aureus; conditions: 20 mg/kg i.v., neutropenic mice
Procedure: (§3) The mouse thigh infection model was performed as described in the literature with minor modifications. Briefly, female mice had induced neutropenia (neutrophil count ≤ 100/mm^3) by administered intraperitoneally cyclophosphamide on day 4 (150 mg/kg) and day 1 (100 mg/kg) before the experiment. A bacterial suspension of 0.1 mL (MRSA or S. aureus) containing approximately 10^7 CFU/mL microorganism was injected into the posterior thigh of mice to establish infection. Two hours after infection, mice were intravenously injected with NPDM or tiamulin at 20 mg/kg. After 24 h, thighs (six per group) were collected upon euthanasia. Then, thighs were weighed and homogenized with sterile saline. Tissue homogenate was continuously diluted 10-fold and plated on MHA plates for colony counts. SPSS 19 software was used for statistical analysis and t-tests.

MRSA ATCC 43300 [11] = test: Neutropenic mouse thigh infection model; type: in vivo, Staphylococcus aureus; conditions: 20 mg/kg i.v., neutropenic mice
Procedure: as §3

MRSA ATCC 43300 [12] = test: MBC assay; type: cell-based, Staphylococcus aureus
Procedure: (§4) Determination of MBCs refers to the minimum concentrations of antibacterial agents required to kill 99.9% of the test microorganisms after 24 h of incubation. After obtaining the MICs value, the 96-well plates were placed at 37 °C and incubated for 24 h. One hundred microliter aliquots of the bacterial suspensions were taken from the wells without visible bacterial growth and then plated onto MHA plates. […] The MBC assay was conducted at least in triplicate.

BRL-3A cells = test: Cytotoxicity, MTT assay; type: cell-based; conditions: Rattus norvegicus, 16 h, read-out: 50% inhibition concentration (IC50), cell viability
Procedure: The cytotoxicity of NPDM was evaluated by the MTT assay as previously reported. Briefly, the medium containing 1 × 10^5 BRL-3A cells per 1 mL was seeded into a 96-well plate at 100 μL per well. After incubation for 48 h, media were replaced with 100 μL of serial dilutions of test compounds and incubated for 16 h. The absorbance (A) was measured at 490 nm by an automatic microplate reader (BIO-TEK Instrument Inc., Winooski, VT, USA). The cell viability was calculated according to Equation (1):(1) Cell viability (%) = (Asimple−Anegative)/(Apositive−Anegative)×100%
A graph was constructed by plotting the inhibition percentage versus various concentrations of NPDM and tiamulin, from which the IC50 of NPDM or tiamulin was calculated. The measurement was repeated in triplicate.

MRSA ATCC 43300 [13] = test: Galleria mellonella infection model; type: in vivo; conditions: Staphylococcus aureus, 120 h; Galleria mellonella larvae infected with MRSA, survival over 5 days
Procedure: The survival rate of Galleria mellonella was determined according to the literature with some modifications. Larvae of Galleria mellonella (16 per group) were injected with 10 μL of 10^8 CFU/mL MRSA inoculum into the last right proleg. Two hours after infection, larvae were injected with 10 μL of various doses (17.14, 25.71, 37.14, 57.14, and 85.71 mg/kg) of NPDM or tiamulin (used as reference drug) into the last left proleg. The larvae were maintained at 37 °C. Survival of the larvae was recorded daily for 5 days, and the ED50 was calculated.

[14] = Acute oral toxicity in mice; type: in vivo; conditions: for LD50 at 2 weeks: both sexes, mice, oral single dose; for LD50 at 2 weeks / Mortality / Mortality Rate: mouse, in vivo, po; for Mortality / Mortality Rate: both, 2 weeks
Procedure: The acute oral toxicity of NPDM was evaluated according to the method reported in the literature. Mice were divided into 6 groups (10 animals each group, half male and half female) and were fasted for 12 h before the experiment. The NPDM was dissolved in DMSO and suspended in 0.5% sodium carboxymethyl cellulose solution. The volumes of suspension by oral gavages were 0.1 mL/10 g. The vehicle control group received DMSO without drug. All animals were observed twice daily for symptoms and mortality for two weeks. At the end of the study, all surviving animals were sacrificed.

S. aureus ATCC 29213 [15] = test: MBC assay; type: cell-based; conditions: Staphylococcus aureus, ATCC29213
Procedure: as §4

[16] = tested on: S. aureus 144 (clinical strain); test: MBC assay; type: cell-based; conditions: Staphylococcus aureus
Procedure: as §4

[17] = tested on: S. aureus AD3 (clinical strain); test: MBC assay; type: cell-based; conditions: Staphylococcus aureus
Procedure: as §4

[18] = female, mouse, plasma, iv, 10 mg/kg i.v., non-compartmental

C=C[C@]1(C)C[C@@H](OC(=O)CN2CCN(C(=O)CN3CCN(c4ccc([N+](=O)[O-])cc4)CC3)CC2)[C@]2(C)[C@H](C)CC[C@]3(CCC(=O)[C@H]32)[C@@H](C)[C@@H]1O [NPDM, 22-(4-(2-(4-nitrophenyl-piperazin-1-yl)-acetyl)-piperazin-1-yl)-22-deoxypleuromutilin]
MIC (S. aureus ATCC 29213 [1]): 0.125 µg/mL (≈ 0.18 µM)
MIC [2]: 0.125 µg/mL (≈ 0.18 µM)
MIC (MRSA ATCC 43300 [3]): 0.125 µg/mL (≈ 0.18 µM)
MIC [4]: 0.125 µg/mL (≈ 0.18 µM)
MRT ([5]; 10 mg/kg i.v., non-compartmental, 10 mg/kg): 18.6 ± 3 min
clearance ([5]; female, mouse, plasma, 10 mg/kg, single intravenous administration): 46 mL/min/kg
AUC(0-inf) [5, 18]: 3660 ± 370 ng·h/mL
AUC(0-t) [5, 18]: 3650 ± 400 ng·h/mL
Cmax [5, 18]: 8690 ± 740 ng/mL
Tmax [5, 18]: 4.98 min
half-life [5, 18]: 13.2 ± 2.4 min
MRT ([5]; female, mouse, plasma, iv, 10 mg/kg, 10 mg/kg i.v., non-compartmental, read-out: MRT): 21.6 min
Concentration showing bacteriostatic effect (S. aureus ATCC 29213 [6]): ≥ 2 × MIC
Time-kill activity at 2 × MIC (MRSA ATCC 43300 [7]; 2 × MIC): bactericidal activity
Concentration showing bactericidal activity (≥3 log10 CFU/mL decrease) (MRSA ATCC 43300 [7]; after incubation for 24 h): ≥ 2 × MIC
Survival rate at the endpoint (MRSA ATCC 43300 [8]; lethal MRSA challenge, 7 days, neutropenic mice): 70%
Survival rate higher than that of the tiamulin-treated group (MRSA ATCC 43300 [8]; difference vs tiamulin): 20%
PAE (MRSA ATCC 43300 [9]; 2 × MIC, exposure for 1 h): 2.58 h
PAE (MRSA ATCC 43300 [9]; 2 × MIC, exposure for 2 h): 3.62 h
PAE (MRSA ATCC 43300 [9]; 4 × MIC, exposure for 1 h): 3.11 h
PAE (MRSA ATCC 43300 [9]; 4 × MIC, exposure for 2 h): 4.03 h
PAE longer than that of tiamulin (MRSA ATCC 43300 [9]; difference vs tiamulin): 1~2 h
Average amount of S. aureus inoculum in thighs (S. aureus ATCC 29213 [10]; 24 h after treatment): (1.23 ± 0.51) × 10^8 CFU
Reduction of mean bacterial counts in thighs vs untreated group (S. aureus ATCC 29213 [10]; S. aureus, 24 h): ~ 0.95 log CFU/mL
Reduction of mean MRSA counts in thighs vs untreated group (MRSA ATCC 43300 [11]; 24 h): ~ 1.61 log CFU/mL
Average amount of MRSA inoculum in thighs (MRSA ATCC 43300 [11]; 24 h after treatment): (8.16 ± 3.70) × 10^7 CFU
MBC (MRSA ATCC 43300 [12]; Staphylococcus aureus, MRSA ATCC 43300): 0.125 µg/mL (≈ 0.18 µM)
MBC/MIC value (MRSA ATCC 43300 [12]; against MRSA): one
IC50 (BRL-3A cells): 9.64 µg/mL (≈ 13.9 µM)
ED50 (MRSA ATCC 43300 [13]): 50.5 mg/kg
Acute toxicity classification ([14]; LD50 in the range of 501~5000 mg/kg): low-toxic compound
LD50 at 2 weeks ([14]; modified Karber's formula, read-out: LD50): 3760 mg/kg
LD50 at 2 weeks ([14]; read-out: LD50 95% confidence interval): 3010 to 4710 mg/kg
Mortality ([14]; 987.65 mg/kg): 1
Mortality Rate ([14]; 987.65 mg/kg): 10%
Mortality ([14]; 1481.48 mg/kg): 1
Mortality Rate ([14]; 1481.48 mg/kg): 10%
Mortality ([14]; 2222.22 mg/kg): 2
Mortality Rate ([14]; 2222.22 mg/kg): 20%
Mortality ([14]; 3333.33 mg/kg): 3
Mortality Rate ([14]; 3333.33 mg/kg): 30%
Mortality ([14]; 5000 mg/kg): 5
Mortality Rate ([14]; 5000 mg/kg): 50%
MBC (S. aureus ATCC 29213 [15]): 0.25 µg/mL (≈ 0.36 µM)
MBC [16]: 0.5 µg/mL (≈ 0.721 µM)
MBC [17]: 0.5 µg/mL (≈ 0.721 µM)
